Experimental data taken from PubChem BioAssay (NCI).
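GI50 is the concentration that inhibits growth by half. Definition used: TGI = concentration required for complete inhibition of growth.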

What was measured:
Assay in all cases: NCI tumour cell line growth inhibition, 384-well format
786-0 renal = test system: 786-0 renal
A498 renal = test system: A498 renal
A549 NSCLC = test system: A549 NSCLC
ACHN renal = test system: ACHN renal
BT-549 breast = test system: BT-549 breast
CAKI-1 renal = test system: CAKI-1 renal
CCRF-CEM leukemia = test system: CCRF-CEM leukemia
COLO 205 colon = test system: COLO 205 colon
DU-145 prostate = test system: DU-145 prostate
EKVX NSCLC = test system: EKVX NSCLC
HCC-2998 colon = test system: HCC-2998 colon
HCT-116 colon = test system: HCT-116 colon
HCT-15 colon = test system: HCT-15 colon
HL-60(TB) leukemia = test system: HL-60(TB) leukemia
HOP-62 NSCLC = test system: HOP-62 NSCLC
HOP-92 NSCLC = test system: HOP-92 NSCLC
HS 578T breast = test system: HS 578T breast
HT29 colon = test system: HT29 colon
IGROV1 ovarian = test system: IGROV1 ovarian
K-562 leukemia = test system: K-562 leukemia
KM12 colon = test system: KM12 colon
LOX IMVI melanoma = test system: LOX IMVI melanoma
M14 melanoma = test system: M14 melanoma
MALME-3M melanoma = test system: MALME-3M melanoma
MCF7 breast = test system: MCF7 breast
MDA-MB-231 breast = test system: MDA-MB-231 breast
MDA-MB-435 melanoma = test system: MDA-MB-435 melanoma
MDA-MB-468 breast = test system: MDA-MB-468 breast
MOLT-4 leukemia = test system: MOLT-4 leukemia
NCI-H226 lung = test system: NCI-H226 lung
NCI-H23 lung = test system: NCI-H23 lung
NCI-H322M lung = test system: NCI-H322M lung
NCI-H460 NSCLC = test system: NCI-H460 NSCLC
NCI-H522 lung = test system: NCI-H522 lung
NCI/ADR-RES ovarian = test system: NCI/ADR-RES ovarian
OVCAR-3 ovarian = test system: OVCAR-3 ovarian
OVCAR-4 ovarian = test system: OVCAR-4 ovarian
OVCAR-5 ovarian = test system: OVCAR-5 ovarian
OVCAR-8 ovarian = test system: OVCAR-8 ovarian
PC-3 prostate = test system: PC-3 prostate
RPMI-8226 leukemia = test system: RPMI-8226 leukemia
RXF 393 renal = test system: RXF 393 renal
SF-268 CNS = test system: SF-268 CNS
SF-295 CNS = test system: SF-295 CNS
SF-539 CNS = test system: SF-539 CNS
SK-MEL-28 melanoma = test system: SK-MEL-28 melanoma
SK-MEL-5 melanoma = test system: SK-MEL-5 melanoma
SK-OV-3 ovarian = test system: SK-OV-3 ovarian
SN12C renal = test system: SN12C renal
SNB-19 CNS = test system: SNB-19 CNS
SNB-75 CNS = test system: SNB-75 CNS
SW-620 colon = test system: SW-620 colon
T-47D breast = test system: T-47D breast
TK-10 renal = test system: TK-10 renal
U251 glioblastoma = test system: U251 glioblastoma
UACC-257 melanoma = test system: UACC-257 melanoma
UACC-62 melanoma = test system: UACC-62 melanoma
UO-31 renal = test system: UO-31 renal

Q: What does the source list for COc1cc2nc(-c3cc(F)ccc3O)nc(N[C@@H]3CNC[C@H]3C(C)(C)O)c2cc1OC?
A: GI50 (786-0 renal): 1.53 µM; TGI (786-0 renal): 2.87 µM; GI50 (A498 renal): 1.65 µM; TGI (A498 renal): 3.02 µM; GI50 (A549 NSCLC): 1.51 µM; TGI (A549 NSCLC): 2.91 µM; GI50 (ACHN renal): 1.75 µM; TGI (ACHN renal): 3.18 µM; GI50 (BT-549 breast): 1.31 µM; TGI (BT-549 breast): 2.59 µM; GI50 (CAKI-1 renal): 1.35 µM; TGI (CAKI-1 renal): 2.66 µM; GI50 (CCRF-CEM leukemia): 1.41 µM; TGI (CCRF-CEM leukemia): 2.73 µM; GI50 (COLO 205 colon): 1.24 µM; TGI (COLO 205 colon): 2.52 µM; GI50 (DU-145 prostate): 1.57 µM; TGI (DU-145 prostate): 2.99 µM; GI50 (EKVX NSCLC): 1.46 µM; TGI (EKVX NSCLC): 2.79 µM; GI50 (HCC-2998 colon): 0.97 µM; TGI (HCC-2998 colon): 2.17 µM; GI50 (HCT-116 colon): 1.11 µM; TGI (HCT-116 colon): 2.37 µM; GI50 (HCT-15 colon): 1.91 µM; TGI (HCT-15 colon): 3.37 µM; GI50 (HL-60(TB) leukemia): 1.82 µM; TGI (HL-60(TB) leukemia): 3.24 µM; GI50 (HOP-62 NSCLC): 1.22 µM; TGI (HOP-62 NSCLC): 2.49 µM; GI50 (HOP-92 NSCLC): 1.15 µM; TGI (HOP-92 NSCLC): 2.38 µM; GI50 (HS 578T breast): 1.74 µM; TGI (HS 578T breast): 3.13 µM; GI50 (HT29 colon): 1.65 µM; TGI (HT29 colon): 3.06 µM; GI50 (IGROV1 ovarian): 0.507 µM; TGI (IGROV1 ovarian): 1.64 µM; GI50 (K-562 leukemia): 1.27 µM; TGI (K-562 leukemia): 2.55 µM; GI50 (KM12 colon): 1.34 µM; TGI (KM12 colon): 2.64 µM; GI50 (LOX IMVI melanoma): 1.39 µM; TGI (LOX IMVI melanoma): 2.71 µM; GI50 (M14 melanoma): 1.83 µM; TGI (M14 melanoma): 3.25 µM; GI50 (MALME-3M melanoma): 1.6 µM; TGI (MALME-3M melanoma): 2.96 µM; GI50 (MCF7 breast): 1.57 µM; TGI (MCF7 breast): 2.95 µM; GI50 (MDA-MB-231 breast): 1.4 µM; TGI (MDA-MB-231 breast): 2.7 µM; GI50 (MDA-MB-435 melanoma): 1.95 µM; TGI (MDA-MB-435 melanoma): 3.39 µM; GI50 (MDA-MB-468 breast): 1.77 µM; TGI (MDA-MB-468 breast): 3.17 µM; GI50 (MOLT-4 leukemia): 1.53 µM; TGI (MOLT-4 leukemia): 2.87 µM; GI50 (NCI-H226 lung): 1.4 µM; TGI (NCI-H226 lung): 2.76 µM; GI50 (NCI-H23 lung): 1.44 µM; TGI (NCI-H23 lung): 2.77 µM; GI50 (NCI-H322M lung): 1.63 µM; TGI (NCI-H322M lung): 3.02 µM; GI50 (NCI-H460 NSCLC): 1.47 µM; TGI (NCI-H460 NSCLC): 2.89 µM; GI50 (NCI-H522 lung): 1.04 µM; TGI (NCI-H522 lung): 2.22 µM; GI50 (NCI/ADR-RES ovarian): 2.24 µM; TGI (NCI/ADR-RES ovarian): 4.99 µM; GI50 (OVCAR-3 ovarian): 1.82 µM; TGI (OVCAR-3 ovarian): 3.23 µM; GI50 (OVCAR-4 ovarian): 2.39 µM; TGI (OVCAR-4 ovarian): 3.88 µM; GI50 (OVCAR-5 ovarian): 1.67 µM; TGI (OVCAR-5 ovarian): 3.11 µM; GI50 (OVCAR-8 ovarian): 1.69 µM; TGI (OVCAR-8 ovarian): 3.09 µM; GI50 (PC-3 prostate): 1.56 µM; TGI (PC-3 prostate): 2.92 µM; GI50 (RPMI-8226 leukemia): 1.83 µM; TGI (RPMI-8226 leukemia): 3.25 µM; GI50 (RXF 393 renal): 1.56 µM; TGI (RXF 393 renal): 2.91 µM; GI50 (SF-268 CNS): 0.434 µM; TGI (SF-268 CNS): 1.62 µM; GI50 (SF-295 CNS): 1.88 µM; TGI (SF-295 CNS): 3.3 µM; GI50 (SF-539 CNS): 1.26 µM; TGI (SF-539 CNS): 2.54 µM; GI50 (SK-MEL-28 melanoma): 2.01 µM; TGI (SK-MEL-28 melanoma): 3.44 µM; GI50 (SK-MEL-5 melanoma): 1.5 µM; TGI (SK-MEL-5 melanoma): 2.85 µM; GI50 (SK-OV-3 ovarian): 1.82 µM; TGI (SK-OV-3 ovarian): 3.24 µM; GI50 (SN12C renal): 1.48 µM; TGI (SN12C renal): 2.81 µM; GI50 (SNB-19 CNS): 1.79 µM; TGI (SNB-19 CNS): 3.21 µM; GI50 (SNB-75 CNS): 1.25 µM; TGI (SNB-75 CNS): 2.51 µM; GI50 (SW-620 colon): 1.82 µM; TGI (SW-620 colon): 3.24 µM; GI50 (T-47D breast): 2.46 µM; TGI (T-47D breast): 3.94 µM; GI50 (TK-10 renal): 1.63 µM; TGI (TK-10 renal): 3.05 µM; GI50 (U251 glioblastoma): 1.86 µM; TGI (U251 glioblastoma): 3.28 µM; GI50 (UACC-257 melanoma): 1.71 µM; TGI (UACC-257 melanoma): 3.1 µM; GI50 (UACC-62 melanoma): 1.62 µM; TGI (UACC-62 melanoma): 2.99 µM; GI50 (UO-31 renal): 1.81 µM; TGI (UO-31 renal): 3.22 µM
